From patent publication US20200085776A1, “Methods of Reducing C-Reactive Protein and/or Treating Cardiovascular Disease” (CARDAX, INC., priority 2018, published 2020)

Test system: C-reactive protein (CRP)
Assay: CRP (hs-CRP) in blood, CHASE clinical study
Type: in vivo, human
Settings: Group Z 48 mg BID; for CRP Max / CRP Mean (SD) / CRP Median / CRP Min: V6 Week 12
Excerpt: This is a two-part study comprising Part I and Part II. Following screening, Part I consists of a randomized, double-blind, placebo controlled dosing period of up to 12 weeks. The study shall be conducted at one or more study sites in Hawaii. Approximately 360 subjects qualified after completion of screening procedures shall be randomized in a 1:1:1 ratio to one of three treatment groups, per Table 1.
The Part I 12-week double-blind dosing period commences with V2, including randomization and first dose of study product, and continues with study visits at Week 1-2 (V3), Week 4 (V4), Week 8 (V5), and Week 12 (V6). V6 procedures will conclude Part I.
Blood shall be obtained at each visit for CRP. The screening specimen shall be processed at the local lab and reported to the study staff for eligibility determination; CRP samples at V7 and V8 may also be processed locally and reported directly to study staff. Samples for CRP from V2 through V6 may be batched, processed, and reported as specified in the Laboratory Manual.
At each these visits, blood was obtained for measurement of CRP, among other parameters. Table 7A provides a summary of the CRP measurements (mg/L) at each visit and Table 7B provides a summary of the differences of CRP levels between V2 and V6.

[1] = subjects with DM2, hypertension and hyperlipidemia but not CAD
[2] = subjects with Diabetes Mellitus Type II
[3] = subjects with baseline level greater than 2.0
[4] = baseline to Week 12, all subjects
[5] = baseline to Week 12, subjects not taking a hypertension agent
[6] = baseline to Week 12, subjects not taking any cardiac therapeutic agent
[7] = baseline to Week 12, subjects not taking statins
[8] = baseline to Week 12, subjects taking an anti-diabetic agent
[9] = baseline to Week 12, subjects with CAD
[10] = baseline to Week 12, subjects with DM2, hypertension and hyperlipidemia but not CAD
[11] = baseline to Week 12, subjects with Diabetes Mellitus Type II
[12] = baseline to Week 12, subjects with baseline level greater than 2.0
[13] = baseline to Week 12, subjects with hyperlipidemia

CC1=C(/C=C/C(C)=C/C=C/C(C)=C/C=C/C=C(C)/C=C/C=C(C)/C=C/C2=C(C)C(=O)C(O)CC2(C)C)C(C)(C)CC(O)C1=O (stereo not drawn) [Astaxanthin, astaxanthin]
CRP Max [1]: 6.14 mg/L | CRP Mean (SD) [1]: 3.38 (1.57) mg/L | CRP Median [1]: 2.58 mg/L | CRP Min [1]: 2.48 mg/L | CRP Max [2]: 8.84 mg/L | CRP Mean (SD) [2]: 3.77 (2.70) mg/L | CRP Median [2]: 2.56 mg/L | CRP Min [2]: 0.61 mg/L | CRP Max [3]: 8.84 mg/L | CRP Mean (SD) [3]: 3.88 (2.42) mg/L | CRP Median [3]: 2.89 mg/L | CRP Min [3]: 0.61 mg/L | CRP Max (subjects with hyperlipidemia): 6.14 mg/L | CRP Mean (SD) (subjects with hyperlipidemia): 2.54 (1.29) mg/L | CRP Median (subjects with hyperlipidemia): 2.31 mg/L | CRP Min (subjects with hyperlipidemia): 0.61 mg/L | CRP V2 to V6 % Change Max [4]: 81.89% | CRP V2 to V6 % Change Mean [4]: −8.48% | CRP V2 to V6 % Change Median [4]: −27.9% | CRP V2 to V6 % Change Min [4]: −90.9% | CRP V2 to V6 Change Max [4]: 2.58 mg/L | CRP V2 to V6 Change Mean [4]: -0.87 mg/L | CRP V2 to V6 Change Median [4]: -0.65 mg/L | CRP V2 to V6 Change Min [4]: -6.07 mg/L | CRP V2 to V6 % Change Max [5]: −4.25% | CRP V2 to V6 % Change Mean (SD) [5]: −30.8 (26.09) % | CRP V2 to V6 % Change Median [5]: −31.8% | CRP V2 to V6 % Change Min [5]: −56.4% | CRP V2 to V6 Change Max [5]: -0.11 mg/L | CRP V2 to V6 Change Mean (SD) [5]: −1.58 (1.32) mg/L | CRP V2 to V6 Change Median [5]: -2.00 mg/L | CRP V2 to V6 Change Min [5]: -2.64 mg/L | CRP V2 to V6 % Change Max [6]: 71.27% | CRP V2 to V6 % Change Mean (SD) [6]: −23.7 (41.82) % | CRP V2 to V6 % Change Median [6]: −31.5% | CRP V2 to V6 % Change Min [6]: −90.9% | CRP V2 to V6 Change Max [6]: 1.29 mg/L | CRP V2 to V6 Change Mean (SD) [6]: −1.42 (2.01) mg/L | CRP V2 to V6 Change Median [6]: -1.24 mg/L | CRP V2 to V6 Change Min [6]: -6.07 mg/L | CRP V2 to V6 % Change Max [7]: 19.13% | CRP V2 to V6 % Change Mean (SD) [7]: −14.9 (28.11) % | CRP V2 to V6 % Change Median [7]: −17.6% | CRP V2 to V6 % Change Min [7]: −56.4% | CRP V2 to V6 Change Max [7]: 0.80 mg/L | CRP V2 to V6 Change Mean (SD) [7]: −0.81 (1.42) mg/L | CRP V2 to V6 Change Median [7]: -0.71 mg/L | CRP V2 to V6 Change Min [7]: -2.64 mg/L | CRP V2 to V6 % Change** Max [8]: 81.89% | CRP V2 to V6 % Change** Mean (SD) [8]: −16.9 (49.24) % | CRP V2 to V6 % Change** Median [8]: −30.7% | CRP V2 to V6 % Change** Min [8]: −90.9% | CRP V2 to V6 Change Max [8]: 2.58 mg/L | CRP V2 to V6 Change Mean (SD) [8]: −1.18 (2.36) mg/L | CRP V2 to V6 Change Median [8]: -1.14 mg/L | CRP V2 to V6 Change Min [8]: -6.07 mg/L | CRP V2 to V6 % Change Max [9]: 81.89% | CRP V2 to V6 % Change Mean (SD) [9]: −28.8 (65.35) % | CRP V2 to V6 % Change Median [9]: −39.7% | CRP V2 to V6 % Change Min [9]: −90.9% | CRP V2 to V6 Change Max [9]: 1.04 mg/L | CRP V2 to V6 Change Mean (SD) [9]: −1.91 (2.67) mg/L | CRP V2 to V6 Change Median [9]: -1.24 mg/L | CRP V2 to V6 Change Min [9]: -6.07 mg/L | CRP V2 to V6 % Change Max [10]: −4.25% | CRP V2 to V6 % Change Mean (SD) [10]: −32.6 (18.99) % | CRP V2 to V6 % Change Median [10]: −30.7% | CRP V2 to V6 % Change Min [10]: −50.4% | CRP V2 to V6 Change Max [10]: -0.11 mg/L | CRP V2 to V6 Change Mean (SD) [10]: −1.87 (1.24) mg/L | CRP V2 to V6 Change Median [10]: -2.37 mg/L | CRP V2 to V6 Change Min [10]: -3.24 mg/L | CRP V2 to V6 % Change Max [11]: 81.89% | CRP V2 to V6 % Change Mean (SD) [11]: −14.7 (47.59) % | CRP V2 to V6 % Change Median [11]: −29.3% | CRP V2 to V6 % Change Min [11]: −90.9% | CRP V2 to V6 Change Max [11]: 2.58 mg/L | CRP V2 to V6 Change Mean (SD) [11]: −1.01 (2.32) mg/L | CRP V2 to V6 Change Median [11]: -0.90 mg/L | CRP V2 to V6 Change Min [11]: -6.07 mg/L | CRP V2 to V6 % Change Max [12]: 48.77% | CRP V2 to V6 % Change Mean (SD) [12]: −24.8 (35.03) % | CRP V2 to V6 % Change Median [12]: −31.1% | CRP V2 to V6 % Change Min [12]: −90.9% | CRP V2 to V6 Change Max [12]: 2.58 mg/L | CRP V2 to V6 Change Mean (SD) [12]: −1.37 (2.11) mg/L | CRP V2 to V6 Change Median [12]: -1.54 mg/L | CRP V2 to V6 Change Min [12]: -6.07 mg/L | CRP V2 to V6 % Change Max [13]: 81.89% | CRP V2 to V6 % Change Mean (SD) [13]: −13.6 (49.58) % | CRP V2 to V6 % Change Median [13]: −30.7% | CRP V2 to V6 % Change Min [13]: −90.9% | CRP V2 to V6 Change Max [13]: 1.29 mg/L | CRP V2 to V6 Change Mean (SD) [13]: −1.24 (1.95) mg/L | CRP V2 to V6 Change Median [13]: -1.14 mg/L | CRP V2 to V6 Change Min [13]: -6.07 mg/L
